Experimental data: US8552064B2, “Suramin and derivatives thereof as topical microbicide and contraceptive” (Eastern Virginia Medical School, priority 2005, dated 2013)
≈ marks a conversion by molar mass, not a printed value. Where two headings read alike, the source gives them in different places.

Experiments:
[1] = Pharmacokinetics in female rats, intravenous and intravaginal; type: in vivo, rat; settings: for Vd: read-out: Vdss
Description: Female rats (n=6) were administered with 30 mg of compound per kg in a single I.V. dose in saline or intravaginally, BID, for 5 days, formulated in KY jelly. The selected single dose represented 10 times the estimated human dose (250 mg). […] Following intravenous administration, relatively high concentrations of suramin sodium (mean value=563 μg/mL) were measured in plasma at 1 hour (first time-point) following the onset of dosing. […] The mean volume of distribution was calculated at 147 mL/kg.

[2] = system: HIV-1 transmission from H9-SK1 cells to ME-180 cervical epithelial cells; test: ME-180-based topical microbicide assay (CD4-independent epithelial cell transmission)
Description: ME-180 cervical epithelial cells were plated in the interior wells of a 96-well flat bottom microtiter plate at a density of 5×10^3 cells per well and incubated overnight. Chronically infected H9 cells (H9-SK1) were treated with 200 μg/ml mitomycin C (Sigma) in complete medium for one hour, washed extensively and resuspended at 4×10^5 per ml. […] Antiviral compounds and chronically infected cells (2×10^4 cells) were added to each well containing ME-180 cells and incubated for 6 hours. Following co-cultivation, the monolayer was washed extensively and fresh medium was added. Medium was removed and fresh medium was added at 24 and 48 hours post-infection to remove dead lymphocytes. On day 6 post-infection, supernatant samples were removed and analyzed for virus content by p24 ELISA (Phillips D M et al., 1995, J Virol Methods, March, 52 (1-2): 1-13).

HSV-1 = test: HSV plaque assay, HSV-1; type: cell-based; settings: Human alphaherpesvirus 1; read-out: IC50 against HSV-1
[3] = system: human sperm acrosome reaction; test: Acrosome reaction ionophore challenge test (ARIC); type: cell-based
Excerpt: The acrosome reaction ionophore challenge test (ARIC) was used, as described in Cummins J. M., et al., J. Androl., 12: 98-103 (1991), to measure the proportion of spermatozoa that respond to a calcium ionophore (typically, A23187), developing an acrosome reaction. More specifically, this test was used to determine whether suramin sodium affects the ionophore-induced acrosome reaction of the sperm, therefore altering the capacity of sperm to penetrate an egg. Results are expressed in percent inhibition of control (untreated sperm) acrosome reactions. 2.

[4] = biological target: sheep testicular hyaluronidase (Ovis aries, UniProt A0ACI6NV18); test: Hyaluronic acid hydrolysis assay; type: biochemical
Excerpt: A hyaluronic acid hydrolysis assay was used to assess the hyaluronidase inhibition properties of suramin sodium. Hyaluronidase is a critical sperm enzyme involved in cumulus penetration. Inhibition of this enzyme renders sperm incapable of transversing the egg vestments, thus impeding sperm-oocyte interaction and, ultimately, fertilization.
Hyaluronidase activity was quantitatively determined by measuring the extent of hyaluronic acid hydrolysis (i.e., the concentration of N-acetylglucosamine-reactive material formed from enzyme activity). Reaction mixtures containing the following were prepared: test compound (variable concentrations of suramin sodium); 0.1 M sodium acetate; 0.15 M sodium chloride; pH adjusted to 5.5; 7.2 units sheep testicular hyaluronidase (Sigma, Type III; H-2251) contained in an acetate buffer; 0.3 mg/ml hyaluronic acid (Sigma, from bovine vitreous humor; H-7630). The enzyme was preincubated with the test agent (1 mg/ml for screening purposes) for 10 minutes before starting the reaction by the addition of hyaluronic acid. The enzyme reaction was determined using the method of Aronson and Davidson (J. Biol. Chem. 241 437-40, 1967). […] The reaction product is determined calorimetrically with […] (Reissig et al., J. Biol. Chem. 217 959-966, […]) by measuring the absorbance at 545 nm.

[5] = system: sperm penetration in cervical mucus; test: Modified One End Test (MOET), sperm penetration in bovine cervical mucus; type: cell-based
Excerpt: Bovine cervical mucus was obtained from Humagen (Charlottesville, Va.) in the form of prepackaged flat capillary tubes (Penetrak®), kept frozen and thawed right prior to the experiment. The Modified One End Test (MOET) [(described in Doncel G. F., in “Barrier Contraceptives”, Wiley-Liss, Mauck C. K. et al. eds., pp. 147-162 (1994)] was used to determine the effect of compounds, such as suramin sodium described herein, on sperm penetration in cervical mucus. Each of the test compositions containing the compound to be tested were diluted in a saline solution, i.e., at 9 grams of NaCl per liter of water. Tubes of cervical mucus were broken open. The open end was placed in a container containing the test compound in saline. The test compound was allowed to diffuse for 30 minutes through the tube. A semen sample, obtained from normal healthy donors, was then diluted with a buffer solution to 60 million motile sperm per milliliter and mixed with the test compound sample (i.e., suramin sodium). The tube containing the test compound sample was then re-inserted into the container containing the mixed solution and stored in an incubator at 37° C. in an atmosphere of 5 percent carbon dioxide in air for 60 minutes. The container and tube were then removed from the incubator and the tube was visually analyzed under a microscope for the migration of motile vanguard sperm through the tube. The results are expressed as percentage of migration as compared to control samples. In the control samples, the tubes were incubated with saline containing no compound. […]

sperm = test: Sperm progressive motility dose-response and time studies, CASA; type: cell-based, human
[6] = female, rat, plasma, IV: single dose 30 mg/kg
[7] = female, rat, plasma, IVag: 30 mg/kg BID for 5 days

Chain of sheep testicular hyaluronidase (A0ACI6NV18 entry or part of it): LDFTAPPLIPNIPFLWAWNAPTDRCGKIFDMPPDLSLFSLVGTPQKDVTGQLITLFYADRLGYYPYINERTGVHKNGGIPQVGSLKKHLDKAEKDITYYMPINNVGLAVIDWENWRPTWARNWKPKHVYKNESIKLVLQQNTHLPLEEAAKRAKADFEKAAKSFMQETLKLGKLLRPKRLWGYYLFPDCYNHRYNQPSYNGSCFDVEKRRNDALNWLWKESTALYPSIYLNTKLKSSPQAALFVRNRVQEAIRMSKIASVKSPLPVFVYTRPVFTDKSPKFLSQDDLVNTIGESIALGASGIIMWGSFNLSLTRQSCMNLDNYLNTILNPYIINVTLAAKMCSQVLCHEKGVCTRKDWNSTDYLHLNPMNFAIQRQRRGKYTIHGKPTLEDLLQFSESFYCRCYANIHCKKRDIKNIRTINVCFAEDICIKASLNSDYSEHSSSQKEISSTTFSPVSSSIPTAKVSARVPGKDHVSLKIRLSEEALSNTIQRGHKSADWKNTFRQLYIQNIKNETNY

In the case of `Cc1ccc(C(=O)Nc2ccc(S(=O)(=O)O)c3cc(S(=O)(=O)O)cc(S(=O)(=O)O)c23)cc1NC(=O)c1cccc(NC(=O)Nc2cccc(C(=O)Nc3cc(C(=O)Nc4ccc(S(=O)(=O)O)c5cc(S(=O)(=O)O)cc(S(=O)(=O)O)c45)ccc3C)c2)c1` [Suramin, 8,8′-(carbonylbis(imino-3,1-phenylenecarbonylimino(4-methyl-3,1-phenylene)carbonylimino))bis-1,3,5-naphthalene trisulfonic acid], the clinical signs ([1]; 30 mg/kg I.V. or intravaginally BID 5 days) is reported as “No clinical signs were observed”, the t½ ([1]; IV: single dose 30 mg/kg, 30 mg/kg) is reported as 68.6 h and the Kel ([1]; IV: single intravenous dose of 30 mg/kg, female rats, plasma) is reported as 0.0102. The t½ ([1]; IVag: 30 mg/kg BID for 5 days, listed as Suramin sodium) was 132 h, the Kel ([1]; IVag: intravaginal 30 mg/kg BID for 5 days in KY jelly) was 0.005 and the “bioavailability after intravaginal administration” value ([1]; calculated from the total dose (90 mg) administered intravaginally) was < 1%. For the same compound, the “histological lesions in vagina, lungs, liver and kidneys” value ([1]; female rats receiving the intravenous solution) was “No histological lesions were observed”, the AUC ([1]; female, rat, plasma, 30 mg/kg, IVag: 30 mg/kg BID for 5 days, zero to 144 hr post dose, read-out: AUC(tf)) was 1170 µg·h/mL and the AUC ([1]; female, rat, plasma, 30 mg/kg, IVag: 30 mg/kg BID for 5 days, zero to infinity, read-out: AUC(I)) was 2280 µg·h/mL. The half-life ([1]; female, rat, plasma, 30 mg/kg, intravaginal administration, read-out: mean half-life (converted)) was ~132 h, the bioavailability ([1]; female, rat, plasma, 90 mg, calculated from the total dose (90 mg) administered intravaginally, read-out: bioavailability after intravaginal administration) was 0.8% and the half-life ([1]; female, rat, plasma, iv, 30 mg/kg, IV: single dose 30 mg/kg, read-out: t½ (converted)) was 68.5 h. It also gave an AUC ([1]; female, rat, plasma, iv, 30 mg/kg, IV: single dose 30 mg/kg, zero to 144 hr post dose, read-out: AUC(tf)) of 13900 µg·h/mL, an AUC ([1]; female, rat, plasma, iv, 30 mg/kg, IV: single dose 30 mg/kg, zero to infinity, read-out: AUC(I)) of 17300 µg·h/mL and a clearance [1, 6] of 0.0292 mL/min. It also gave a Vd [1, 6] of 0.147 L/kg, a Cmax ([1]; female, rat, plasma, IV: single intravenous dose of 30 mg/kg, at 1 hour) of 563 µg/mL and a clearance [1, 7] of 0.0001 mL/min. For the same compound, the Cmax ([1]; female, rat, plasma, IVag: 30 mg/kg BID for 5 days, at 3.5 hours following the last dose) was 17.7 µg/mL, the Vd [1, 7] was 0.132 L/kg and the “Potency, HIV-1 ME-180” value [2] was “High”. The IC50 ([2]; Human immunodeficiency virus 1, ME-180, CD4-independent epithelial cell transmission) was 24.5 µg/mL (≈ 18.9 µM), the “effect of mucin on activity in ME-180 assay” value ([2]; addition of mucin) was “did not significantly reduce suramin's activity” and the IC50 (HSV-1) was 30 µg/mL (≈ 23.1 µM). The “effect on spontaneous and ionophore-induced acrosome reaction” value [3] was “neither to stimulate spontaneous acrosome reaction (acrosomal loss) nor to block the Ca^2+ ionophore-induced reaction”, the “Percentage of acrosome-reacted Sperm” value ([3]; Calcium-ionophore treatment (5 μM A23187): +) was 31.4 ± 15.1% and the “Percentage of acrosome-reacted Sperm” value ([3]; Calcium-ionophore treatment (5 μM A23187): −) was 5.28 ± 1.93%. For the same compound, the “Potency, Acrosome Reaction (ARIC)” value ([3]; induction or inhibition of acrosome reaction) was “None”, the “Potency, Hyaluronidase (Hyaluronic Acid Hydrolysis)” value [4] was “High” and the “MOET % CTL” value ([5]; 6.25 mg/ml) was 96.1 ± 0.9 % CTL. The “MOET % CTL” value ([5]; 12.5 mg/ml) was 94.9 ± 2.2 % CTL, the “sperm impediment in MOET” value ([5]; 25 mg/mL or below) was “No significant sperm impediment” and the “MOET % CTL” value ([5]; 25 mg/ml) was 95.9 ± 1.4 % CTL. The “inhibition of sperm penetration in MOET” value ([5]; 50 mg/mL (5%)) was “only minor inhibition of sperm penetration”, the “MOET % CTL” value ([5]; 50 mg/ml) was 72.3 ± 7.1 % CTL and the “degree of inhibition of sperm penetration” value ([5]; KY, suramin sodium in KY and suramin sodium alone at the same concentration) was ~4%. The “sperm motion parameters by CASA” value (sperm; 1 mM) was “no significant changes in sperm motion parameters”, the “sperm motion characteristics vs control” value (sperm; 7.5 mg/mL) was “did not appear to be significantly different” and the “sperm progressive motility and membrane integrity vs solvent control” value (sperm; 1-10,000 μg/mL or 5-0.07 mM) was “no alteration of sperm progressive movement and viability”. The “sperm motility, time-dependent study” value (sperm; suboptimal doses, prolonged incubation (e.g., 30 min.)) was “no alteration of sperm motility”.
